One data set is described as follows: in vitro. The conditions noted are these: human liver microsomes, 5 µM test compound, 37 °C, 2 h. Type of data set: in vitro ADME, human. In short, it runs like this: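 HLM diluted to 5 mg/mL in 100 mM KPO4, preincubated 10 min at 37 °C with NADPH-regenerating system. Compound (5 µM final) incubated at 37 °C in triplicate, sampled at 0 and 2 h into ice-cold acetonitrile, then LC-MS analysis.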

Data set [1] concerns the target T1, phosphorylated Tie-2 (aa 775-1122) (Homo sapiens, UniProt Q02763).
T1 construct: 4 to 12 nM phosphorylated Tie-2 (aa 775-1122); made in house; host or cells: insect cells
The data set can be described thus: TIE-2 spectrophotometric assay. As to conditions: Table 5; 1 µM; bold values spectrophotometric assay, non-bolded DELFIA assay (bold not visible here); read-out: % Inhibition @ 1 µM Tie2-P. Type of data set: biochemical. The essentials:
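Human phosphorylated Tie-2 kinase activity was measured spectrophotometrically by coupling ADP formation, from phosphoryl transfer to poly(Glu4 Tyr), to NADH oxidation via pyruvate kinase and lactate dehydrogenase. Absorbance loss at 340 nm was read on a Beckman DU650. Reactions held 1 mM phosphoenolpyruvate, 0.24 mM NADH, 40 mM MgCl2, 5 mM DTT, 0.5 mM ATP, and 15 units/mL each of PK and LDH in 100 mM HEPES, pH 7.5.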

Another data set concerns the target CDK4/Cyclin D3 complex (Homo sapiens, UniProt P11802). The data set can be described thus: biochemical. As to conditions: read-out: CDK4 * (% inhibition).
Data set [2] concerns human umbilical vein endothelial cells (HUVEC). The data set can be described thus: HUVEC proliferation assay (VEGF-stimulated, MTT). Type of data set: cell-based. The conditions noted are these: Homo sapiens, HUVEC, Table 1.
In another data set the target is T2, human CHK1 (FL-CHK1) (Homo sapiens, UniProt O14757).
T2 construct: C-terminally His-tagged full-length human CHK1 (FL-CHK1) was expressed using the baculovirus/insect cell system; made in house; host or cells: baculovirus/insect cell system
T2 sequence (O14757 1-476): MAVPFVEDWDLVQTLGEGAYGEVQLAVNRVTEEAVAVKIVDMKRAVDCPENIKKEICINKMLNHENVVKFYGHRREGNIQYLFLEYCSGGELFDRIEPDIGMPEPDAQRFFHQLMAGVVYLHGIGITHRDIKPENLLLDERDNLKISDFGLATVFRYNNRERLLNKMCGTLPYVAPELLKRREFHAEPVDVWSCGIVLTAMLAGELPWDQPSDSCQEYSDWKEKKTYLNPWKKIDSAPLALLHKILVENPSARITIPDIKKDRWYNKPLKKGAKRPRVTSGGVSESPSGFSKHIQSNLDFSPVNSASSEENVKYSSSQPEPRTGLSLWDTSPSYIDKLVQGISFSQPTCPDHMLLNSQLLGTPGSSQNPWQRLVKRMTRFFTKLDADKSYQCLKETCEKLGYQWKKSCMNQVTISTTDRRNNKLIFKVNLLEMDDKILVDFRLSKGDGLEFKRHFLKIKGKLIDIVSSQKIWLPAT
The data set can be described thus: CHK1 coupled spectrophotometric assay. Type of data set: biochemical. The conditions noted are these: read-out: CHK -1* (% inhibition). In short, it runs like this: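 His-tagged full-length human CHK1 from baculovirus/insect cells, 10 nM, phosphorylating Syntide-2. ADP formation coupled via PK/LDH with PEP to NADH oxidation, followed as absorbance decrease at 340 nm. Ki from initial rates at varying compound concentrations.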

[3] abbreviates: + albumin, read-out: HUVEC + albumin IC50.

The structures appear in SMILES notation. Where two headings read alike, the source gives them in different places.

T1 sequence (Q02763 775-1122): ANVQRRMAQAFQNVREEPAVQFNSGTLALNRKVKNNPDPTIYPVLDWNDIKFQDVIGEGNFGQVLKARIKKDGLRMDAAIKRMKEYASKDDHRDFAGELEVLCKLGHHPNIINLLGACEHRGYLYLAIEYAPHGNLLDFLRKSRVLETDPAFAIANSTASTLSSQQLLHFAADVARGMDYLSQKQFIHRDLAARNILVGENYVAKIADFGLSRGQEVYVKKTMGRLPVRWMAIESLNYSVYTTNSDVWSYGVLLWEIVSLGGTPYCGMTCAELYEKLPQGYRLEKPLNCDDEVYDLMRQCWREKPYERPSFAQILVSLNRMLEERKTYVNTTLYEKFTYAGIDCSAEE
Sequence of CDK4/Cyclin D3 complex (P11802 whole entry): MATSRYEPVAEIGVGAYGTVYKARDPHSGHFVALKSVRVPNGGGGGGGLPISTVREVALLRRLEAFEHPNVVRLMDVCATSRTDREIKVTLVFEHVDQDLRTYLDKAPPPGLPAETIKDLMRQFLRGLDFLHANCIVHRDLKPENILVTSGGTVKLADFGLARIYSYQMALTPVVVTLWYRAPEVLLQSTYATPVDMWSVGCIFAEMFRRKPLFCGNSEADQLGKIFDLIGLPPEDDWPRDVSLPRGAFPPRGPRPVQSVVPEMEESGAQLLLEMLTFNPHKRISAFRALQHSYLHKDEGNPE
Sequence of CDK4/Cyclin D3 complex (P30281 whole entry partner): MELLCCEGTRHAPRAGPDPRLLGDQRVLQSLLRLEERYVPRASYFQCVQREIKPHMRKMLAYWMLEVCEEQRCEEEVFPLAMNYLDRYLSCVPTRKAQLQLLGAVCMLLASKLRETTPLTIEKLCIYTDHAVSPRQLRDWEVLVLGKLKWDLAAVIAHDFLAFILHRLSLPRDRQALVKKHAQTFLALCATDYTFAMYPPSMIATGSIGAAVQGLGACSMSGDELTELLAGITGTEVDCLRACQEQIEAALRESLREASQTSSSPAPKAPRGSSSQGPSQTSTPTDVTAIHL

As for `CCn1nc(C)cc1C(=O)Nc1cccc(Oc2ccc3c(/C=C/c4ccccn4)n[nH]c3c2)c1` [Reference Example 31(d), 6-[3-((1-Ethyl-3-methyl-1H-pyrazol-5-yl)carboxamido)phenoxy]-3-E-[2-(pridin-2-yl)ethenyl]-1H-indazole], the “% remain (HLM, 2 h)” value in the data set “in vitro” is given as 110%. Besides, the inhibition at 1 µM amounted to 46% in data set [1], 9% on CDK4/Cyclin D3 complex and 0% on human CHK1 (FL-CHK1). The IC50 in data set [2] (setting [3]) is around 13 nM; in data set [2] (read-out: HUVEC IC50) it was 1.3 nM.

Regarding `C#CCNC(=O)c1ccccc1Sc1ccc2c(/C=C/c3ccccn3)n[nH]c2c1` [Reference Example 35(cc), 6-[2-(2-Propynylcarbamoyl)phenylsulfany]-3-E-[2-(pyridin-2-yl)ethenyl]-1H-indazole], the “% remain (HLM, 2 h)” value in “in vitro” is given as 31%. Moreover, the inhibition at 1 µM in data set [1] was found to be 47%; at CDK4/Cyclin D3 complex, 6%; on human CHK1 (FL-CHK1), 0%. Also, the IC50 in data set [2] (setting [3]) stood at 1.6 nM; in data set [2] (read-out: HUVEC IC50), 0.05 nM.

For the compound `CCONC(=O)c1ccccc1Sc1ccc2c(/C=C/c3ccccn3)n[nH]c2c1` [Reference Example 35(dd), 6-[2-(ethoxycarbamoyl)phenylsufanyl]-3-E-[2-(pyridin-2-yl)ethenyl]-1H-indazole], the “% remain (HLM, 2 h)” value in the data set “in vitro” is 26%. Moreover, the figures for the inhibition at 1 µM (in data set [1]; at CDK4/Cyclin D3 complex; at human CHK1 (FL-CHK1)) were 48%, 8% and 0%, respectively. In addition, the IC50 in data set [2] (setting [3]) turned out to be 2.9 nM; in data set [2] (read-out: HUVEC IC50), 0.18 nM.

As for `CC(C)ONC(=O)c1ccccc1Sc1ccc2c(/C=C/c3ccccn3)n[nH]c2c1` [Reference Example 35(k)], in the data set “in vitro”, the “% remain (HLM, 2 h)” value came out at 14%. The figures for the inhibition at 1 µM (in data set [1]; at CDK4/Cyclin D3 complex; on human CHK1 (FL-CHK1)) were 55%, 7% and 0%, respectively. Also, the IC50 in data set [2] (setting [3]) was 2.2 nM.

Regarding `O=C(NNc1ccccn1)c1ccccc1Sc1ccc2c(/C=C/c3ccccn3)n[nH]c2c1` [Reference Example 35(n), 6-[2-(N^2-(pyrid-2-ylhydrazino)carbonyl)phenylsulfanyl]-3-E-[2-(pyridin-2-yl)ethenyl]-1H-indazole], the “% remain (HLM, 2 h)” value in the data set “in vitro” is recorded as 47%. For the same compound, the inhibition at 1 µM in data set [1] turned out to be 82%; at CDK4/Cyclin D3 complex, 10%; at human CHK1 (FL-CHK1), 23%. The IC50 in data set [2] (setting [3]) worked out at 11 nM; in data set [2] (read-out: HUVEC IC50), 0.11 nM.

Turning to `CCn1nc(C)cc1C(=O)Nc1cccc(C(=O)c2ccc3c(/C=C/c4ccccn4)n[nH]c3c2)c1` [Reference Example 41(a), 6-[3-((1-Ethyl-3-methyl-1H-pyrazol-5-yl)carboxamido)benzoyl]. 3-E-[2-(pyridin-2-yl)ethenyl]-1H-indazole], the “% remain (HLM, 2 h)” value in “in vitro” was determined as 96%. Moreover, the inhibition at 1 µM is 50% in data set [1], 6% at CDK4/Cyclin D3 complex and 0% at human CHK1 (FL-CHK1). Moreover, the IC50 in data set [2] (setting [3]) worked out at 4.4 nM; in data set [2] (read-out: HUVEC IC50) it was 0.48 nM.

Turning to `CCn1nc(C)cc1C(=O)Nc1cc(C(=O)c2ccc3c(/C=C/c4ccccn4)n[nH]c3c2)ccc1C` [Reference Example 41(ee), 6-[3-((1-Ethyl-3-methyl-1H-pyrazol-5-yl)carboxamido)-4-methylbenzoyl]-3-E-[2-(pyridin-2-yl)ethenyl]-1H-indazole], the “% remain (HLM, 2 h)” value in the data set “in vitro” stood at 47%. The inhibition at 1 µM in data set [1] was found to be 41%; on CDK4/Cyclin D3 complex, 2%; at human CHK1 (FL-CHK1) it was 0%. In addition, the IC50 in data set [2] (setting [3]) is 4.3 nM; in data set [2] (read-out: HUVEC IC50), 0.24 nM.

`CCCn1nc(C)cc1C(=O)Nc1cccc(C(=O)c2ccc3c(/C=C/c4ccccn4)n[nH]c3c2)c1` [Reference Example 41(r)]: in “in vitro”, the “% remain (HLM, 2 h)” value is recorded as 83%. Moreover, the inhibition at 1 µM was found to be 56% in data set [1], 5% on CDK4/Cyclin D3 complex and 0% on human CHK1 (FL-CHK1). For the same compound, in data set [2] (setting [3]), the IC50 stood at 11 nM.

(Values after patent EP1614683B1, “Indazole compounds and pharmaceutical compositions for inhibiting protein kinases, and methods for their use” (priority 1999, dated 2001).)
